Data on 28 compounds can be found in patent US11661426B2, “Imidazole-containing inhibitors of ALK2 kinase” (BioCryst Pharmaceuticals, Inc., priority 2017, dated 2023).

Some results are limits rather than exact numbers.

Chain of ALK2 (Q04771 21-509): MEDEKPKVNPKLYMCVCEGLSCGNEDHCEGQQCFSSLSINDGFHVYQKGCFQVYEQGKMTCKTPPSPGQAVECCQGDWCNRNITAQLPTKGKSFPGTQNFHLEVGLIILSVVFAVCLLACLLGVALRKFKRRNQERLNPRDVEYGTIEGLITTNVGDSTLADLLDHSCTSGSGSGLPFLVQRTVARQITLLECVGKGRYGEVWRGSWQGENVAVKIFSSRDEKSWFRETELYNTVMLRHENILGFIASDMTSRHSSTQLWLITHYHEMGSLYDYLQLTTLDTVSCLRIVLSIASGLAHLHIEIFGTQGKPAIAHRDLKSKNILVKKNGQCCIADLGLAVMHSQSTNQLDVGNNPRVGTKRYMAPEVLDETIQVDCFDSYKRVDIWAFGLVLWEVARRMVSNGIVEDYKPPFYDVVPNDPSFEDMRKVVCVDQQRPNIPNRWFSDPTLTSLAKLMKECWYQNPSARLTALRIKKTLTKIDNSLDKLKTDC

For the assay, the target named is ALK2 (Homo sapiens (Human), UniProt Q04771). The assay can be described thus: ALK2 inhibition, LanthaScreen Eu Kinase Binding Assay (ThermoFisher Scientific / Life Technologies). Conditions: read-out: Measured Ki (IC50) Value for Compounds: IC50. Here is the method:
Biochemical assays to measure the inhibitory effects of the compounds were performed by ThermoFisher Scientific (Life Technologies). ALK2 inhibition was tested using LanthaScreen™ Eu Kinase Binding Assay screening protocol.
The term IC50 denotes the concentration needed to halve the response being measured. With `OC[C@@H]1CCCN1c1nc(Nc2cn(-c3cccc4c3OCO4)cn2)c2cccn2n1` [Compound 424e, (S)-(1-(4-((1-(benzo[d][1,3]dioxol-4-yl)-1H-imidazol-4-yl)amino)pyrrolo[2,1-f][1,2,4]triazin-2-yl)pyrrolidin-2-yl)methanol], the IC50 was < 100 nM.
As for `OC[C@@H]1CCCN1c1nc(Nc2cn(-c3cccc(O)c3O)cn2)c2cccn2n1` [Compound 424f, (S)-3-(4-((2-(2-(hydroxymethyl)pyrrolidin-1-yl)pyrrolo[2,1-f][1,2,4]triazin-4-yl)amino)-1H-imidazol-1-yl)benzene-1,2-diol], the figure is 100 to 1000 nM; as for `OC[C@@H]1CCCN1c1nc(Nc2cn(-c3ccc4c(c3)OCO4)cn2)c2cccn2n1` [Compound 425e, (S)-(1-(4-((1-(benzo[d][1,3]dioxol-5-yl)-1H-imidazol-4-yl)amino)pyrrolo[2,1-f][1,2,4]triazin-2-yl)pyrrolidin-2-yl)methanol], < 100 nM; as for `COc1cc(C(=O)N(C)C)cc(-n2cnc(Nc3nc(N4CCC[C@H]4CO)nn4cccc34)c2)c1` [Compound 426c, (S)-3-(4-((2-(2-(hydroxymethyl)pyrrolidin-1-yl)pyrrolo[2,1-f][1,2,4]triazin-4-yl)amino)-1H-imidazol-1-yl)-5-methoxy-N,N-dimethylbenzamide], < 100 nM.
On to `CNC(=O)c1cc(OC)cc(-n2cnc(Nc3nc(N4CCC[C@H]4CO)nn4cccc34)c2)c1` [Compound 427b, (S)-3-(4-((2-(2-(hydroxymethyl)pyrrolidin-1-yl)pyrrolo[2,1-f][1,2,4]triazin-4-yl)amino)-1H-imidazol-1-yl)-5-methoxy-N-methylbenzamide], for which the IC50 was < 100 nM.
As for `OC[C@@H]1CCCN1c1nc(Nc2cn(-c3ccc4c(c3)OCO4)cn2)c2ccsc2n1` [Compound 428b, (S)-(1-(4-((1-(benzo[d][1,3]dioxol-5-yl)-1H-imidazol-4-yl)amino)thieno[2,3-d]pyrimidin-2-yl)pyrrolidin-2-yl)methanol], the figure is < 100 nM.
As for `NC(=O)[C@@H]1CCCN1c1nc(Nc2cn(-c3ccc4c(c3)OCO4)cn2)c2ccsc2n1` [Compound 429a, (S)-1-(4-((1-(benzo[d][1,3]dioxol-5-yl)-1H-imidazol-4-yl)amino)thieno[2,3-d]pyrimidin-2-yl)pyrrolidine-2-carboxamide], the figure is 100 to 1000 nM; as for `COc1cc(-n2cnc(Nc3nc(N4CCC[C@H]4CO)c4cnn(C5CCCCO5)c4n3)c2)cc(OC)c1OC` (stereo partly drawn) [Compound 430b, ((2S)-1-(1-(tetrahydro-2H-pyran-2-yl)-6-((1-(3,4,5-trimethoxyphenyl)-1H-imidazol-4-yl)amino)-1H-pyrazolo[3,4-d]pyrimidin-4-yl)pyrrolidin-2-yl)methanol], < 100 nM; as for `NC(=O)[C@@H]1CCCN1c1nc(Nc2cn(-c3ccc4c(c3)OC(F)(F)O4)cn2)c2ccsc2n1` [Compound 431e, (S)-1-(4-((1-(2,2-difluorobenzo[d][1,3]dioxol-5-yl)-1H-imidazol-4-yl)amino)thieno[2,3-d]pyrimidin-2-yl)pyrrolidine-2-carboxamide], > 1000 nM.
As for `OC[C@@H]1CCCN1c1nc(Nc2cn(-c3ccc4c(c3)OC(F)(F)O4)cn2)c2ccsc2n1` [Compound 432a, (S)-(1-(4-((1-(2,2-difluorobenzo[d][1,3]dioxol-5-yl)-1H-imidazol-4-yl)amino)thieno[2,3-d]pyrimidin-2-yl)pyrrolidin-2-yl)methanol], the figure is 100 to 1000 nM.
For `OC[C@@H]1CCCN1c1nc(Nc2cn(-c3ccc4c(c3)OC(F)(F)O4)cn2)c2cccn2n1` [Compound 433b, (S)-(1-(4-((1-(2,2-difluorobenzo[d][1,3]dioxol-5-yl)-1H-imidazol-4-yl)amino)pyrrolo[2,1-f][1,2,4]triazin-2-yl)pyrrolidin-2-yl)methanol], the IC50 is 100 to 1000 nM.
With `OCc1cccc(-n2cnc(Nc3nc(N4CCC[C@H]4CO)nn4cccc34)c2)c1` [Compound 434e, (S)-(1-(4-((1-(3-(hydroxymethyl)phenyl)-1H-imidazol-4-yl)amino)pyrrolo[2,1-f][1,2,4]triazin-2-yl)pyrrolidin-2-yl)methanol] the figure was < 100 nM; with `COc1cc(-n2cnc(Nc3nc(N4CCC[C@H]4CO)c4c(C)nn([C@H]5CC[C@H](N)CC5)c4n3)c2)cc(OC)c1OC` [Compound 435e, ((S)-1-(1-((trans)-4-aminocyclohexyl)-3-methyl-6-((1-(3,4,5-trimethoxyphenyl)-1H-imidazol-4-yl)amino)-1H-pyrazolo[3,4-d]pyrimidin-4-yl)pyrrolidin-2-yl)methanol], < 100 nM; with `OCc1ccc(-n2cnc(Nc3nc(N4CCC[C@H]4CO)nn4cccc34)c2)cc1` [Compound 436e, (S)-(1-(4-((1-(4-(hydroxymethyl)phenyl)-1H-imidazol-4-yl)amino)pyrrolo[2,1-f][1,2,4]triazin-2-yl)pyrrolidin-2-yl)methanol], < 100 nM.
Take `Cc1cc(-n2cnc(Nc3nc(N4CCC[C@H]4CO)nn4cccc34)c2)ccn1` [Compound 437e, (S)-(1-(4-((1-(2-methylpyridin-4-yl)-1H-imidazol-4-yl)amino)pyrrolo[2,1-f][1,2,4]triazin-2-yl)pyrrolidin-2-yl)methanol]: the IC50 was < 100 nM.
In the case of `COc1cc(-n2cnc(Nc3nc(N4CCC[C@H]4CO)c4c(C)nn(CC5CCCCC5)c4n3)c2)cc(OC)c1OC` [Compound 438c, (S)-(1-(1-(cyclohexylmethyl)-3-methyl-6-((1-(3,4,5-trimethoxyphenyl)-1H-imidazol-4-yl)amino)-1H-pyrazolo[3,4-d]pyrimidin-4-yl)pyrrolidin-2-yl)methanol], the IC50 was < 100 nM.
As for `COc1cc(-n2cnc(Nc3nc(N4CCC[C@H]4CO)c4c(C)nn(C5CCCCC5)c4n3)c2)cc(OC)c1OC` [Compound 439c, (S)-(1-(1-cyclohexyl-3-methyl-6-((1-(3,4,5-trimethoxyphenyl)-1H-imidazol-4-yl)amino)-1H-pyrazolo[3,4-d]pyrimidin-4-yl)pyrrolidin-2-yl)methanol], the figure is < 100 nM; as for `COc1cc(-n2cnc(Nc3nc(N4CCC[C@H]4CO)c4c(C)nn(C5CCCC5)c4n3)c2)cc(OC)c1OC` [Compound 440c, (S)-(1-(1-cyclopentyl-3-methyl-6-((1-(3,4,5-trimethoxyphenyl)-1H-imidazol-4-yl)amino)-1H-pyrazolo[3,4-d]pyrimidin-4-yl)pyrrolidin-2-yl)methanol], < 100 nM; as for `OC[C@@H]1CCCN1c1nc(Nc2cn(-c3ccnc4c(F)cccc34)cn2)c2cccn2n1` [Compound 441e, (S)-(1-(4-((1-(8-fluoroquinolin-4-yl)-1H-imidazol-4-yl)amino)pyrrolo[2,1-f][1,2,4]triazin-2-yl)pyrrolidin-2-yl)methanol], < 100 nM.
With `COc1cc(-n2cnc(Nc3nc(N4CCC[C@H]4CO)c4c(C)nn(C5CCC5)c4n3)c2)cc(OC)c1OC` [Compound 442c, (S)-(1-(1-cyclobutyl-3-methyl-6-((1-(3,4,5-trimethoxyphenyl)-1H-imidazol-4-yl)amino)-1H-pyrazolo[3,4-d]pyrimidin-4-yl)pyrrolidin-2-yl)methanol] the figure was < 100 nM; with `OC[C@@H]1CCCN1c1nc(Nc2cn(-c3ccnc4ccsc34)cn2)c2cccn2n1` [Compound 443e, (S)-(1-(4-((1-(thieno[3,2-b]pyridin-7-yl)-1H-imidazol-4-yl)amino)pyrrolo[2,1-f][1,2,4]triazin-2-yl)pyrrolidin-2-yl)methanol], < 100 nM.
With `COc1cc(-n2cnc(Nc3nc(N4CCC[C@H]4CO)c4c(C)nn([C@H]5C[C@@H](N)C5)c4n3)c2)cc(OC)c1OC` [Compound 444c, ((S)-1-(1-((cis)-3-aminocyclobutyl)-3-methyl-6-((1-(3,4,5-trimethoxyphenyl)-1H-imidazol-4-yl)amino)-1H-pyrazolo[3,4-d]pyrimidin-4-yl)pyrrolidin-2-yl)methanol] the figure was < 100 nM.
As for `COc1cc(-n2cnc(Nc3nc(N4CCC[C@H]4CO)c4c(C)nn([C@H]5C[C@H](N)C5)c4n3)c2)cc(OC)c1OC` [Compound 445c, ((S)-1-(1-((trans)-3-aminocyclobutyl)-3-methyl-6-((1-(3,4,5-trimethoxyphenyl)-1H-imidazol-4-yl)amino)-1H-pyrazolo[3,4-d]pyrimidin-4-yl)pyrrolidin-2-yl)methanol], the IC50 is < 100 nM.
With `COc1cc(-n2cnc(Nc3nc(N4CCC[C@H]4CO)c4c(C)nn(C5CCOC5)c4n3)c2)cc(OC)c1OC` (stereo partly drawn) [Compound 446c, ((2S)-1-(3-methyl-1-(tetrahydrofuran-3-yl)-6-((1-(3,4,5-trimethoxyphenyl)-1H-imidazol-4-yl)amino)-1H-pyrazolo[3,4-d]pyrimidin-4-yl)pyrrolidin-2-yl)methanol], the IC50 was < 100 nM.
With `COc1cc(-n2cnc(Nc3nc(N4CCC[C@H]4CO)c4c(C)nn([C@H]5CC[C@@H](O)CC5)c4n3)c2)cc(OC)c1OC` [Compound 447c, (cis)-4-(4-((S)-2-(hydroxymethyl)pyrrolidin-1-yl)-3-methyl-6-((1-(3,4,5-trimethoxyphenyl)-1H-imidazol-4-yl)amino)-1H-pyrazolo[3,4-d]pyrimidin-1-yl)cyclohexanol] the figure was < 100 nM.
For the compound `OC[C@@H]1CCCN1c1nc(Nc2cn(-c3ccnc4ccccc34)cn2)c2cccn2n1` [Compound 448e, (S)-(1-(4-((1-(quinolin-4-yl)-1H-imidazol-4-yl)amino)pyrrolo[2,1-f][1,2,4]triazin-2-yl)pyrrolidin-2-yl)methanol], the IC50 is < 100 nM.
With `OC[C@@H]1CCCN1c1nc(Nc2cn(-c3cn(C4CC4)cn3)cn2)c2cccn2n1` [Compound 449d, (S)-(1-(4-((1′-cyclopropyl-1′H-[1,4′-biimidazol]-4-yl)amino)pyrrolo[2,1-f][1,2,4]triazin-2-yl)pyrrolidin-2-yl)methanol] the figure was < 100 nM; with `OC[C@@H]1CCCN1c1nc(Nc2cn(-c3cn(C4CCC4)cn3)cn2)c2cccn2n1` [Compound 450d, (S)-(1-(4-((1′-cyclobutyl-1′H-[1,4′-biimidazol]-4-yl)amino)pyrrolo[2,1-f][1,2,4]triazin-2-yl)pyrrolidin-2-yl)methanol], 100 to 1000 nM.
